Laboratory results: the NIST ThermoML archive (doi:10.1016/j.fluid.2014.01.019)
± gives the expanded uncertainty stated by the source.

Settings: Liquid; for mass density: 101.33 kPa, Vibrating tube method; for speed of sound: 101 kPa, Frequency=2 MHz, Linear variable-path acoustic interferometer

mass density (298.15 K) [kg/m3]	speed of sound (303.15 K) [m/s]	mass density (303.15 K) [kg/m3]	mass density (308.15 K) [kg/m3]	speed of sound (313.15 K) [m/s]	mass density (313.15 K) [kg/m3]	SMILES
1076.47 ± 0.15	1285 ± 8	1072.86 ± 0.15	1068.21 ± 0.15	1248 ± 8	1064.01 ± 0.15	Cc1ccccc1Cl [2-chlorotoluene]
1067.25 ± 0.15	1281 ± 8	1062.79 ± 0.15	1058.29 ± 0.15	1247 ± 8	1053.49 ± 0.15	Cc1cccc(Cl)c1 [3-chlorotoluene]
1064.93 ± 0.16	1274 ± 8	1059.56 ± 0.16	1054.27 ± 0.15	1237 ± 8	1049.29 ± 0.15	Cc1ccc(Cl)cc1 [4-chlorotoluene]
1041.44 ± 0.14	1514 ± 9	1037.67 ± 0.14	1033.75 ± 0.14	1485 ± 9	1029.91 ± 0.14	OCc1ccccc1 [benzenemethanol]

SMILES	mass density (298.15 K) [kg/m3]	speed of sound (303.15 K) [m/s]	mass density (303.15 K) [kg/m3]	mass density (308.15 K) [kg/m3]	speed of sound (313.15 K) [m/s]	mass density (313.15 K) [kg/m3]
Cc1ccccc1[N+](=O)[O-] [2-nitrotoluene]	1159.6 ± 0.19	1439 ± 9	1153.29 ± 0.18	1149.78 ± 0.18	1403 ± 9	1144.91 ± 0.18
Cc1cccc([N+](=O)[O-])c1 [3-nitrotoluene]	1152.23 ± 0.18	1442 ± 9	1147.67 ± 0.18	1142.67 ± 0.18	1409 ± 9	1137.98 ± 0.18
